Results from PubChem BioAssay (NCI).
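GI50 is the concentration that inhibits growth by half. The concentration for full growth arrest is given as TGI.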

Columns and labels:
Assay in all cases: DTP human tumour cell line panel, 384-well format
NCI-H460 NSCLC = tested on: NCI-H460 NSCLC
SNB-19 CNS = tested on: SNB-19 CNS
MALME-3M melanoma = tested on: MALME-3M melanoma
EKVX NSCLC = tested on: EKVX NSCLC
HCC-2998 colon = tested on: HCC-2998 colon
LOX IMVI melanoma = tested on: LOX IMVI melanoma
786-0 renal = tested on: 786-0 renal
NCI-H322M lung = tested on: NCI-H322M lung
SK-MEL-28 melanoma = tested on: SK-MEL-28 melanoma
UACC-257 melanoma = tested on: UACC-257 melanoma
DU-145 prostate = tested on: DU-145 prostate
HOP-62 NSCLC = tested on: HOP-62 NSCLC
HCT-15 colon = tested on: HCT-15 colon
SF-539 CNS = tested on: SF-539 CNS
RPMI-8226 leukemia = tested on: RPMI-8226 leukemia
T-47D breast = tested on: T-47D breast
NCI-H226 lung = tested on: NCI-H226 lung
MDA-MB-231 breast = tested on: MDA-MB-231 breast
SN12C renal = tested on: SN12C renal
COLO 205 colon = tested on: COLO 205 colon
SK-OV-3 ovarian = tested on: SK-OV-3 ovarian
SF-295 CNS = tested on: SF-295 CNS
NCI-H522 lung = tested on: NCI-H522 lung
UACC-62 melanoma = tested on: UACC-62 melanoma
PC-3 prostate = tested on: PC-3 prostate
HS 578T breast = tested on: HS 578T breast
TK-10 renal = tested on: TK-10 renal
NCI/ADR-RES ovarian = tested on: NCI/ADR-RES ovarian
A549 NSCLC = tested on: A549 NSCLC
UO-31 renal = tested on: UO-31 renal
HT29 colon = tested on: HT29 colon
MOLT-4 leukemia = tested on: MOLT-4 leukemia
RXF 393 renal = tested on: RXF 393 renal
MDA-MB-468 breast = tested on: MDA-MB-468 breast
SR leukemia = tested on: SR leukemia
NCI-H23 lung = tested on: NCI-H23 lung
A498 renal = tested on: A498 renal
OVCAR-5 ovarian = tested on: OVCAR-5 ovarian
SW-620 colon = tested on: SW-620 colon
SF-268 CNS = tested on: SF-268 CNS
OVCAR-8 ovarian = tested on: OVCAR-8 ovarian
SNB-75 CNS = tested on: SNB-75 CNS
HL-60(TB) leukemia = tested on: HL-60(TB) leukemia
M14 melanoma = tested on: M14 melanoma
OVCAR-3 ovarian = tested on: OVCAR-3 ovarian
U251 glioblastoma = tested on: U251 glioblastoma
OVCAR-4 ovarian = tested on: OVCAR-4 ovarian
BT-549 breast = tested on: BT-549 breast
IGROV1 ovarian = tested on: IGROV1 ovarian
ACHN renal = tested on: ACHN renal
HOP-92 NSCLC = tested on: HOP-92 NSCLC
CAKI-1 renal = tested on: CAKI-1 renal
KM12 colon = tested on: KM12 colon
MDA-MB-435 melanoma = tested on: MDA-MB-435 melanoma
CCRF-CEM leukemia = tested on: CCRF-CEM leukemia
MCF7 breast = tested on: MCF7 breast
K-562 leukemia = tested on: K-562 leukemia
SK-MEL-5 melanoma = tested on: SK-MEL-5 melanoma

COCCOC(=O)C1=C(C)NC2=C(C(=O)CC(c3ccccc3OC)C2)C1c1cccc(O)c1 (stereo unspecified)
GI50 (NCI-H460 NSCLC): 14.7 µM
TGI (NCI-H460 NSCLC): 30.8 µM
GI50 (SNB-19 CNS): 11.4 µM
TGI (SNB-19 CNS): 38 µM
GI50 (MALME-3M melanoma): 4.14 µM
TGI (MALME-3M melanoma): 23.2 µM
GI50 (EKVX NSCLC): 17.6 µM
TGI (EKVX NSCLC): 62.2 µM
GI50 (HCC-2998 colon): 3.67 µM
TGI (HCC-2998 colon): 15.2 µM
GI50 (LOX IMVI melanoma): 3.75 µM
TGI (LOX IMVI melanoma): 13.6 µM
GI50 ([…]-0 renal): 5.49 µM
TGI (786-0 renal): 24.2 µM
GI50 (NCI-H322M lung): 12.7 µM
TGI (NCI-H322M lung): > 100 µM
GI50 (SK-MEL-28 melanoma): 11 µM
TGI (SK-MEL-28 melanoma): 31 µM
GI50 (UACC-257 melanoma): 5.14 µM
TGI (UACC-257 melanoma): 22.8 µM
GI50 (DU-145 prostate): 18.5 µM
TGI (DU-145 prostate): 65 µM
GI50 (HOP-62 NSCLC): 5.19 µM
TGI (HOP-62 NSCLC): 22.1 µM
GI50 (HCT-15 colon): 11.6 µM
TGI (HCT-15 colon): 27 µM
GI50 (SF-539 CNS): 11.2 µM
TGI (SF-539 CNS): 27.3 µM
GI50 (RPMI-8226 leukemia): 1.08 µM
TGI (RPMI-8226 leukemia): 4.87 µM
GI50 (T-47D breast): 8.93 µM
TGI (T-47D breast): 66.7 µM
GI50 (NCI-H226 lung): 4.91 µM
TGI (NCI-H226 lung): 27.6 µM
GI50 (MDA-MB-231 breast): 4.79 µM
TGI (MDA-MB-231 breast): 60.4 µM
GI50 (SN12C renal): 15.6 µM
TGI (SN12C renal): 41.2 µM
GI50 (COLO 205 colon): 7.74 µM
TGI (COLO 205 colon): 24.6 µM
GI50 (SK-OV-3 ovarian): 3.74 µM
TGI (SK-OV-3 ovarian): 20.4 µM
GI50 (SF-295 CNS): 16.2 µM
TGI (SF-295 CNS): 37.5 µM
GI50 (NCI-H522 lung): 2.39 µM
TGI (NCI-H522 lung): 13.7 µM
GI50 (UACC-62 melanoma): 2.38 µM
TGI (UACC-62 melanoma): 16.6 µM
GI50 (PC-3 prostate): 15.6 µM
TGI (PC-3 prostate): 53.6 µM
GI50 (HS 578T breast): 1.93 µM
TGI (HS 578T breast): 8.82 µM
GI50 (TK-10 renal): 8.47 µM
TGI (TK-10 renal): 28.1 µM
GI50 (NCI/ADR-RES ovarian): 46.3 µM
TGI (NCI/ADR-RES ovarian): > 100 µM
GI50 (A549 NSCLC): 6.88 µM
TGI (A549 NSCLC): 31 µM
GI50 (UO-31 renal): 34.6 µM
TGI (UO-31 renal): > 100 µM
GI50 (HT29 colon): 6.75 µM
TGI (HT29 colon): 22.2 µM
GI50 (MOLT-4 leukemia): 7.21 µM
TGI (MOLT-4 leukemia): 20.7 µM
GI50 (RXF 393 renal): 16.2 µM
TGI (RXF 393 renal): 34.9 µM
GI50 (MDA-MB-468 breast): 2.5 µM
TGI (MDA-MB-468 breast): 7.67 µM
GI50 (SR leukemia): 0.761 µM
TGI (SR leukemia): 11.5 µM
GI50 (NCI-H23 lung): 8.58 µM
TGI (NCI-H23 lung): 25.8 µM
GI50 (A498 renal): 10.6 µM
TGI (A498 renal): 29.6 µM
GI50 (OVCAR-5 ovarian): 12 µM
TGI (OVCAR-5 ovarian): 43.1 µM
GI50 (SW-620 colon): 13 µM
TGI (SW-620 colon): 27 µM
GI50 (SF-268 CNS): 15.5 µM
TGI (SF-268 CNS): 37 µM
GI50 (OVCAR-8 ovarian): 6.94 µM
TGI (OVCAR-8 ovarian): 21.6 µM
GI50 (SNB-75 CNS): 9.16 µM
TGI (SNB-75 CNS): 98.6 µM
GI50 (HL-60(TB) leukemia): 1.27 µM
TGI (HL-60(TB) leukemia): 3.17 µM
GI50 (M14 melanoma): 11 µM
TGI (M14 melanoma): 34.9 µM
GI50 (OVCAR-3 ovarian): 5.05 µM
TGI (OVCAR-3 ovarian): 17.6 µM
GI50 (U251 glioblastoma): 17.2 µM
TGI (U251 glioblastoma): 44 µM
GI50 (OVCAR-4 ovarian): 2.14 µM
TGI (OVCAR-4 ovarian): 8.76 µM
GI50 (BT-549 breast): 2.55 µM
TGI (BT-549 breast): 14.9 µM
GI50 (IGROV1 ovarian): 8.28 µM
TGI (IGROV1 ovarian): 24.7 µM
GI50 (ACHN renal): 17.3 µM
TGI (ACHN renal): 55.6 µM
GI50 (HOP-92 NSCLC): 4.02 µM
TGI (HOP-92 NSCLC): 21 µM
GI50 (CAKI-1 renal): 4.44 µM
TGI (CAKI-1 renal): 27.9 µM
GI50 (KM12 colon): 9.21 µM
TGI (KM12 colon): 26.2 µM
GI50 (MDA-MB-435 melanoma): 9.55 µM
TGI (MDA-MB-435 melanoma): 24.8 µM
GI50 (CCRF-CEM leukemia): 5.99 µM
TGI (CCRF-CEM leukemia): 19.4 µM
GI50 (MCF7 breast): 2.68 µM
TGI (MCF7 breast): 20.7 µM
GI50 (K-562 leukemia): 5.62 µM
TGI (K-562 leukemia): 19.6 µM
GI50 (SK-MEL-5 melanoma): 4.43 µM
TGI (SK-MEL-5 melanoma): 18.1 µM
